Source: patent publication US20150284331A1 (priority 2012, published 2015)

Key:
butyrylcholinesterase = target: T1, butyrylcholinesterase (Rattus norvegicus, UniProt Q9JKC1); assay: inhibition of butyrylcholinesterase (rat serum); assay type: biochemical; conditions: rat serum enzyme; final concentration 4×10−5 mol/L
T1 construct: Butyrylcholinesterase: rat serum; from tissue; host or cells: rat serum
Method: (§1) Sample processing: All samples were formulated as 10-2 mol/L solution by using 100% DMSO. 10-2 mol/L solution was used in microdetermination. 1 μL was taken to use in single tube experiment.
(§2) Solvent control: 0.4% DMSO was used in microdetermination. The inhibition ratio of the sample was obtained wherein the effect of solvent was deducted.
Butyrylcholinesterase: rat serum

acetylcholinesterase = target: T2, acetylcholinesterase (Rattus norvegicus, UniProt P37136); assay: biochemical; assay type: biochemical; conditions: rat cortex enzyme; for acetylcholinesterase inhibitory activity inhibition ratio (%): final concentration 4×10−5 mol/L; for IC50: read-out: acetylcholinesterase inhibitory activity IC50 (nmol)
T2 construct: Acetylcholinesterase: rat cortex; from tissue; host or cells: rat cortex
T2 sequence (P37136 32-614): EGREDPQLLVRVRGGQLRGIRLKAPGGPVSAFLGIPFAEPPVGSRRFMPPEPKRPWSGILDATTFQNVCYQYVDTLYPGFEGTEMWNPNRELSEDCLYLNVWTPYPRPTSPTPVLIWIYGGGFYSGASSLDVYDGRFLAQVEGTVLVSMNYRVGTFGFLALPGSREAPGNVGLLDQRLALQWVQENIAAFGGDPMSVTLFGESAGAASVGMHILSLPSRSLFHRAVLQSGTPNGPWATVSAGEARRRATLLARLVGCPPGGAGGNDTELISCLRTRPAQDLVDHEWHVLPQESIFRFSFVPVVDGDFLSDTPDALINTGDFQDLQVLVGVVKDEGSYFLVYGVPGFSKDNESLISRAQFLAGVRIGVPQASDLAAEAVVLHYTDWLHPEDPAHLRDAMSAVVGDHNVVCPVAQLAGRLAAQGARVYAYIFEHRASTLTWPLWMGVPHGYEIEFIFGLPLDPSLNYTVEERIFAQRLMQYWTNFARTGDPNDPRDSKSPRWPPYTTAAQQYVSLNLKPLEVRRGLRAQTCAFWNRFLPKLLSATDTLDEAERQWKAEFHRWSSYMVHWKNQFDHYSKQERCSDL
Method: as §1, §2
Acetylcholinesterase: rat cortex

T1 sequence (Q9JKC1 24-597): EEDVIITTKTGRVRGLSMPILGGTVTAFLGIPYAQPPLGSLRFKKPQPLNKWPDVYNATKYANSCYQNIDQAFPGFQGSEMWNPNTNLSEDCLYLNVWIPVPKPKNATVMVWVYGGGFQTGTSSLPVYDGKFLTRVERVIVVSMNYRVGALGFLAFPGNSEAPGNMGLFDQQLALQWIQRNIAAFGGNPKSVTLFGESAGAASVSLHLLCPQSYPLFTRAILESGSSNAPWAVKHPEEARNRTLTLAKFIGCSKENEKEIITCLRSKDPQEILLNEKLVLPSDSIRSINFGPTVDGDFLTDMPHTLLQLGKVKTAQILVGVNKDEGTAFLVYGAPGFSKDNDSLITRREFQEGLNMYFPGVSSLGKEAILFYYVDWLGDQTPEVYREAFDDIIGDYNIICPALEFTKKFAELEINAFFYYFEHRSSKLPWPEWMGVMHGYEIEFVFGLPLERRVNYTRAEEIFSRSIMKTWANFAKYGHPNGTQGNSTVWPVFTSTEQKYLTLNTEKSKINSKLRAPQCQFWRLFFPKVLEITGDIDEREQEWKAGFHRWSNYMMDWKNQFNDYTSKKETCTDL

| SMILES | butyrylcholinesterase inhibitory activity inhibition ratio (%) (butyrylcholinesterase) | acetylcholinesterase inhibitory activity inhibition ratio (%) (acetylcholinesterase) | IC50 (acetylcholinesterase) [nM] |
| --- | --- | --- | --- |
| COc1cc2c(cc1OC)C(=O)C(CC1(F)CCN(Cc3ccc([N+](=O)[O-])cc3)CC1)C2 (stereo not drawn) [DC1, 2-((4-fluoro-1-(4-nitrobenzyl)piperidin-4-yl)methyl)-5,6-dimethoxy-2,3-dihydro-1H-inden-1-one] | 46.68 | 72.85 | 8780 |
| COc1cc2c(cc1OC)C(=O)C(CC1(F)CCN(Cc3ccccc3C#N)CC1)C2 (stereo not drawn) [DC3, 2-((4-((5,6-dimethoxy-1-oxo-2,3-dihydro-1H-inden-2-yl)methyl)-4-fluoropiperidin-1-yl)methyl)benzonitrile] | 36.42 | 80.04 |  |
| COc1cc2c(cc1OC)C(=O)C(CC1(F)CCN(Cc3cc(C)cc(C)c3)CC1)C2 (stereo not drawn) [DC4, 2-((1-(3,5-dimethylbenzyl)-4-fluoropiperidin-4-yl)methyl)-5,6-dimethoxy-2,3-dihydro-1H-inden-1-one] | 72.82 | 75.65 |  |
| COc1cc2c(cc1OC)C(=O)C(CC1(F)CCN(Cc3ccc(F)cc3)CC1)C2 (stereo not drawn) [DC5, 2-((4-fluoro-1-(4-fluorobenzyl)piperidin-4-yl)methyl)-5,6-dimethoxy-2,3-dihydro-1H-inden-1-one] | 0.00 | 82.04 | 2.67 |
| COc1cc2c(cc1OC)C(=O)C(CC1(F)CCN(Cc3ccc(OC(F)(F)F)cc3)CC1)C2 (stereo not drawn) [DC6, 2-((4-fluoro-1-(4-(trifluoromethoxy)benzyl)piperidin-4-yl)methyl)-5,6-dimethoxy-2,3-dihydro-1H-inden-1-one] | 1.24 | 51.7 |  |
| COc1cc2c(cc1OC)C(=O)C(CC1(F)CCN(Cc3ccc(C(C)(C)C)cc3)CC1)C2 (stereo not drawn) [DC7, 2-((1-(4-(tert-butyl)benzyl)-4-fluoropiperidin-4-yl)methyl)-5,6-dimethoxy-2,3-dihydro-1H-inden-1-one] | 8.40 | 69.06 |  |
| COc1cc2c(cc1OC)C(=O)C(CC1(F)CCN(Cc3c(F)cccc3[N+](=O)[O-])CC1)C2 (stereo not drawn) [DC8, 2-((4-fluoro-1-(2-fluoro-6-nitrobenzyl)piperidin-4-yl)methyl)-5,6-dimethoxy-2,3-dihydro-1H-inden-1-one] | 49.48 | 76.05 | 27100 |
| COc1cc2c(cc1OC)C(=O)C(CC1(F)CCN(Cc3cc4c(cc3Br)OCO4)CC1)C2 (stereo not drawn) [DC9, 2-((1-((6-bromobenzo[d][1,3]dioxol-5-yl)methyl)-4-fluoropiperidin-4-yl)methyl)-5,6-dimethoxy-2,3-dihydro-1H-inden-1-one] | 33.79 | 97.34 |  |
| COc1cc2c(cc1OC)C(=O)C(CC1(F)CCN(Cc3ccc(F)cc3F)CC1)C2 (stereo not drawn) [DC10, 2-((1-(2,4-difluorobenzyl)-4-fluoropiperidin-4-yl)methyl)-5,6-dimethoxy-2,3-dihydro-1H-inden-1-one] | 83.11 | 97.34 |  |
| COc1cc2c(cc1OC)C(=O)C(CC1(F)CCN(Cc3cccc(Br)c3)CC1)C2 (stereo not drawn) [DC11, 2-((1-(3-bromobenzyl)-4-fluoropiperidin-4-yl)methyl)-5,6-dimethoxy-2,3-dihydro-1H-inden-1-one] | 12.76 | 84.63 | 4.33 |
| COc1cc2c(cc1OC)C(=O)C(CC1(F)CCN(Cc3ccc(F)c(F)c3F)CC1)C2 (stereo not drawn) [DC12, 2-((4-fluoro-1-(2,3,4-trifluorobenzyl)piperidin-4-yl)methyl)-5,6-dimethoxy-2,3-dihydro-1H-inden-1-one] | 38.15 | 98.08 |  |
| COc1cc2c(cc1OC)C(=O)C(CC1(F)CCN(Cc3cccc(C#N)c3)CC1)C2 (stereo not drawn) [DC13, 3-((4-((5,6-dimethoxy-1-oxo-2,3-dihydro-1H-inden-2-yl)methyl)-4-fluoropiperidin-1-yl)methyl)benzonitrile] | 29.25 | 97.19 |  |
| COc1cc2c(cc1OC)C(=O)C(CC1(F)CCN(Cc3ccccc3Br)CC1)C2 (stereo not drawn) [DC14, 2-((1-(2-bromobenzyl)-4-fluoropiperidin-4-yl)methyl)-5,6-dimethoxy-2,3-dihydro-1H-inden-1-one] | 54.77 | 85.03 | 4 |
| COc1cc2c(cc1OC)C(=O)C(CC1(F)CCN(Cc3ccc(Br)cc3F)CC1)C2 (stereo not drawn) [DC15, 2-((1-(4-bromo-2-fluorobenzyl)-4-fluoropiperidin-4-yl)methyl)-5,6-dimethoxy-2,3-dihydro-1H-inden-1-one] | 0.31 | 72.65 | 7040 |
| COc1cc2c(cc1OC)C(=O)C(CC1(F)CCN(Cc3ccc(C(F)(F)F)cc3)CC1)C2 (stereo not drawn) [DC16, 2-((4-fluoro-1-(4-(trifluoromethyl)benzyl)piperidin-4-yl)methyl)-5,6-dimethoxy-2,3-dihydro-1H-inden-1-one] | 0.00 | 75.25 |  |
| COc1cc2c(cc1OC)C(=O)C(CC1(F)CCN(Cc3cc(F)c(F)cc3F)CC1)C2 (stereo not drawn) [DC17, 2-((4-fluoro-1-(2,4,5-trifluorobenzyl)piperidin-4-yl)methyl)-5,6-dimethoxy-2,3-dihydro-1H-inden-1-one] | 49.79 | 81.84 | 2 |
| COc1cc2c(cc1OC)C(=O)C(CC1(F)CCN(Cc3ccccc3C(F)(F)F)CC1)C2 (stereo not drawn) [DC18, 2-((4-fluoro-1-(2-(trifluoromethyl)benzyl)piperidin-4-yl)methyl)-5,6-dimethoxy-2,3-dihydro-1H-inden-1-one] | 14.99 | 93.80 |  |
| COc1cc2c(cc1OC)C(=O)C(CC1(F)CCN(Cc3cccc(F)c3)CC1)C2 (stereo not drawn) [DC21, 2-((4-fluoro-1-(3-fluorobenzyl)piperidin-4-yl)methyl)-5,6-dimethoxy-2,3-dihydro-1H-inden-1-one] | 75.02 | 82.24 |  |
| COc1cc2c(cc1OC)C(=O)C(CC1(F)CCN(Cc3cc(C(F)(F)F)cc(C(F)(F)F)c3)CC1)C2 (stereo not drawn) [DC22, 2-((1-(3,5-bis(trifluoromethyl)benzyl)-4-fluoropiperidin-4-yl)methyl)-5,6-dimethoxy-2,3-dihydro-1H-inden-1-one] | 4.36 | 58.49 |  |
| COc1cc2c(cc1OC)C(=O)C(CC1(F)CCN(Cc3c(F)c(F)c(F)c(F)c3F)CC1)C2 (stereo not drawn) [DC28, 2-((4-fluoro-1-((perfluorophenyl)methyl)piperidin-4-yl)methyl)-5,6-dimethoxy-2,3-dihydro-1H-inden-1-one] |  | 96.5 |  |
| COc1cc2c(cc1OC)C(=O)C(CC1(F)CC3CCC(C1)N3Cc1ccc([N+](=O)[O-])cc1)C2 (stereo not drawn) [DC41, 2-((3-fluoro-8-(4-nitrobenzyl)-8-azabicyclo[3.2.1]octan-3-yl)methyl)-5,6-dimethoxy-2,3-dihydro-1H-inden-1-one] |  | 56.8 |  |
| COc1cc2c(cc1OC)C(=O)C(CC1(F)CC3CCC(C1)N3Cc1ccccc1C#N)C2 (stereo not drawn) [DC43, 2-((3-((5,6-dimethoxy-1-oxo-2,3-dihydro-1H-inden-2-yl)methyl)-3-fluoro-8-azabicyclo[3.2.1]octan-8-yl)methyl)benzonitrile] |  | 88.9 |  |
| COc1cc2c(cc1OC)C(=O)C(CC1(F)CC3CCC(C1)N3Cc1c(F)cccc1[N+](=O)[O-])C2 (stereo not drawn) [DC48, 2-((3-fluoro-8-(2-fluoro-6-nitrobenzyl)-8-azabicyclo[3.2.1]octan-3-yl)methyl)-5,6-dimethoxy-2,3-dihydro-1H-inden-1-one] |  | 77.3 |  |
| COc1cc2c(cc1OC)C(=O)C(CC1(F)CC3CCC(C1)N3Cc1ccccc1Br)C2 (stereo not drawn) [DC54, 2-((8-(2-bromobenzyl)-3-fluoro-8-azabicyclo[3.2.1]octan-3-yl)methyl)-5,6-dimethoxy-2,3-dihydro-1H-inden-1-one] |  | 90.3 |  |
| COc1cc2c(cc1OC)C(=O)C(CC1(F)CC3CCC(C1)N3Cc1ccc(-c3ccccc3)cc1)C2 (stereo not drawn) [DC76, 2-((8-([1,1′-biphenyl]-4-ylmethyl)-3-fluoro-8-azabicyclo[3.2.1]octan-3-yl)methyl)-5,6-dimethoxy-2,3-dihydro-1H-inden-1-one] |  | 85.3 |  |
